Test results as given in ChEMBL document CHEMBL4145500, “First homology model of Plasmodium falciparum glucose-6-phosphate dehydrogenase: Discovery of selective substrate analog-based inhibitors as novel antimalarial agents” (Eur J Med Chem, 2018).
Values belong to the compound of their own block, whether it stands above or below them.

Key:
[1] = Selectivity index, ratio of Ki for recombinant full length human G6PD to Ki for Plasmodium falciparum G6PD-6PGL
[2] = Cytotoxicity against human HepG2 cells assessed as cell survival at 0.2 to 1 mM after 24 hrs by EZ4U staining-based spectrophotometric analysis relative to control; conditions: read-out: Survival
[3] = target: T1, Bifunctional glucose-6-phosphate 1-dehydrogenase/6-phosphogluconolactonase (Plasmodium falciparum (isolate 3D7), UniProt Q8IKU0); assay: Inhibition of Plasmodium falciparum G6PD-6PGL using G6P as substrate in presence of NADP+ by spectrofluorimetric analysis
T1 sequence (Q8IKU0 whole entry): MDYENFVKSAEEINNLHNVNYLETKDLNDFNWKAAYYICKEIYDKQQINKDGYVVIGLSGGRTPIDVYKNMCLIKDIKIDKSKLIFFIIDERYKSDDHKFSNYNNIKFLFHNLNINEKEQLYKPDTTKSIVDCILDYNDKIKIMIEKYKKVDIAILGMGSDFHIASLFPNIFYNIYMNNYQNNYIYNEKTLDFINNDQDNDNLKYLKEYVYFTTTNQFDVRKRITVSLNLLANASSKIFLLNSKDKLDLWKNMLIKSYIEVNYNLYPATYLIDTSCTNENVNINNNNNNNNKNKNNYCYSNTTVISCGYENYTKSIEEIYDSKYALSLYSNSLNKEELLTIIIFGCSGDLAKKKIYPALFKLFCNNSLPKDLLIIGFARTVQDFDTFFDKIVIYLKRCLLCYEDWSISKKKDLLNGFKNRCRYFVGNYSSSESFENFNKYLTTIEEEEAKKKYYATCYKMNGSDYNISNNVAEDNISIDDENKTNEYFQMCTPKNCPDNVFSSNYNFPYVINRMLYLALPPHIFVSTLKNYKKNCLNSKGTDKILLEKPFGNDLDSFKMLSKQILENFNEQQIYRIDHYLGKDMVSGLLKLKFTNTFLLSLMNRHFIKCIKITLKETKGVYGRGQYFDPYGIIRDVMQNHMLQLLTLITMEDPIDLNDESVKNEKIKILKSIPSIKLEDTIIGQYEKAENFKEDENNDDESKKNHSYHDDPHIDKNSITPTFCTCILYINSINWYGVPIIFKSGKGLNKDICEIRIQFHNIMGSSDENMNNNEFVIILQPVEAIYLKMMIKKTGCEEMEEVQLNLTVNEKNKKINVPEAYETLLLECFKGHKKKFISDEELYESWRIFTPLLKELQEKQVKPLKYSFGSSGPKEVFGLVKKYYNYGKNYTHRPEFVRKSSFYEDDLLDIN

[4] = target: T2, Glucose-6-phosphate 1-dehydrogenase (Homo sapiens, UniProt P11413); assay: Inhibition of recombinant full length human G6PD expressed in Escherichia coli HB351 using G6P as substrate in presence of NADP+ by spectrofluorimetric analysis
Plasmodium falciparum = assay: Antiparasitic activity against Plasmodium falciparum Dd2 clone MRA-150 synchronized ring stage after 48 hrs by PicoGreen dye based microfluorimetric analysis; format: functional, organism-based; conditions: Dd2 clone MRA-150, 48 h
[5] = Cytotoxicity against human HepG2 cells assessed as cell viability at 1.5 to 2 mM after 24 hrs by EZ4U staining-based spectrophotometric analysis relative to control; conditions: read-out: Activity
[6] = target: T1, Bifunctional glucose-6-phosphate 1-dehydrogenase/6-phosphogluconolactonase; assay: Competitive inhibition of Plasmodium falciparum G6PD-6PGL using G6P as substrate in presence of NADP+ by Lineweaver-Burk plot analysis
[7] = target: T2, Glucose-6-phosphate 1-dehydrogenase; assay: Competitive inhibition of recombinant full length human G6PD expressed in Escherichia coli HB351 using G6P as substrate in presence of NADP+ by Lineweaver-Burk plot analysis

T2 sequence (P11413 whole entry): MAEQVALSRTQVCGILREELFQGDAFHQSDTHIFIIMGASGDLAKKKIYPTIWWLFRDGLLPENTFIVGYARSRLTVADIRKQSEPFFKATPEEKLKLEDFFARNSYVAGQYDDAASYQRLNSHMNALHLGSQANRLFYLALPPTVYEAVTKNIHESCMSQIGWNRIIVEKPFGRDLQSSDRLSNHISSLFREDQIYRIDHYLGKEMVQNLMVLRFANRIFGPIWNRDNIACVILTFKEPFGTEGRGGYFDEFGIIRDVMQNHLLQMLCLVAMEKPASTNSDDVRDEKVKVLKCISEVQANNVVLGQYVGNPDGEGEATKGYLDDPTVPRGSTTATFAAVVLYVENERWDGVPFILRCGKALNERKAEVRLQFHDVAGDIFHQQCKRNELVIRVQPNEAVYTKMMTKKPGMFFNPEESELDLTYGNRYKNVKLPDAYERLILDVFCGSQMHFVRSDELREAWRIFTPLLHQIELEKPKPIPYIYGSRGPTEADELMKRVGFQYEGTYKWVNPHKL

SMILES: CO[C@H]1O[C@H](CNS(=O)(=O)CCN)[C@@H](O)[C@H](O)[C@H]1O
- Ratio Ki [1]: > 18
- viability at 24 h, up to 1000 µM [2]: > 80%
- Ki [3]: 22.8 µM
- Ki [4]: > 400 µM
- IC50 (Plasmodium falciparum): 1470 µM

SMILES: CO[C@H]1O[C@H](CS(=O)(=O)CCCN)[C@@H](O)[C@H](O)[C@H]1O
- Ratio Ki [1]: 1
- viability at 24 h, 2000 µM [5]: < 80%
- viability at 24 h, up to 1000 µM [2]: > 80%
- Ki [3]: 34.4 µM
- Ki [4]: 35.4 µM
- IC50 (Plasmodium falciparum): > 2000 µM

SMILES: CCN1CCC[C@@H]1CNC(=O)c1ccc2c(c1)NC(=O)/C(=C/c1ccccc1F)S2
- IC50 [6]: 0.9 µM
- IC50 [7]: > 80 µM

SMILES: CO[C@H]1O[C@H](CSCCCN)[C@@H](O)[C@H](O)[C@H]1O
- Ratio Ki [1]: 0.4
- viability at 24 h, 2000 µM [5]: < 80%
- viability at 24 h, up to 1000 µM [2]: > 80%
- Ki [3]: 289 µM
- Ki [4]: 129 µM
- IC50 (Plasmodium falciparum): > 2000 µM

- IC50 [6]: 0.19 µM
- IC50 [7]: > 80 µM
SMILES: CCN1CCC[C@@H]1CNC(=O)c1ccc2c(c1)NC(=O)c1cccc(C)c1S2

SMILES: CO[C@H]1O[C@H](CSCCC#N)[C@@H](O)[C@H](O)[C@H]1O
- Ratio Ki [1]: > 0.8
- viability at 24 h, up to 1000 µM [2]: > 80%
- Ki [3]: 259 µM
- Ki [4]: > 200 µM
- IC50 (Plasmodium falciparum): 1020 µM

SMILES: CO[C@H]1O[C@H](CS(=O)(=O)CCC#N)[C@@H](O)[C@H](O)[C@H]1O
- Ratio Ki [1]: > 2.9
- viability at 24 h, up to 1000 µM [2]: > 80%
- Ki [3]: 68.8 µM
- Ki [4]: > 200 µM
- IC50 (Plasmodium falciparum): 960 µM

SMILES: CO[C@H]1O[C@H](CSCCNC(=N)N)[C@@H](O)[C@H](O)[C@H]1O
- Ratio Ki [1]: > 4.4
- viability at 24 h, up to 1000 µM [2]: > 80%
- Ki [3]: 45.6 µM
- Ki [4]: > 200 µM
- IC50 (Plasmodium falciparum): 590 µM

SMILES: CO[C@H]1O[C@H](CS(=O)(=O)CCCNC(=N)N)[C@@H](O)[C@H](O)[C@H]1O
- Ratio Ki [1]: 0.5
- viability at 24 h, 2000 µM [5]: < 80%
- viability at 24 h, up to 1000 µM [2]: > 80%
- Ki [3]: 42.9 µM
- Ki [4]: 22.3 µM
- IC50 (Plasmodium falciparum): 1570 µM

SMILES: CO[C@H]1O[C@H](CNS(=O)(=O)CCNC(=N)N)[C@@H](O)[C@H](O)[C@H]1O
- Ratio Ki [1]: 0.5
- viability at 24 h, 2000 µM [5]: < 80%
- viability at 24 h, up to 1000 µM [2]: > 80%
- Ki [3]: 32.4 µM
- Ki [4]: 16.8 µM
- IC50 (Plasmodium falciparum): 330 µM

SMILES: CO[C@H]1O[C@H](CSCCN)[C@@H](O)[C@H](O)[C@H]1O
- Ratio Ki [1]: > 26
- viability at 24 h, up to 1000 µM [2]: > 80%
- Ki [3]: 76.1 µM
- Ki [4]: > 2000 µM
- IC50 (Plasmodium falciparum): 1750 µM
